Source: US9963462B2 (priority 2015, dated 2018)
pIC50: −log10 of the molar value.

How the values were obtained:
[1] = molecular target: SNAP-hSPR (sepiapterin reductase, SPR) (Homo sapiens, UniProt P35270); assay: biochemical; type: binding; details: terbium labelled SNAP-hSPR / SSZ labelled SNAP-EGFP; read-out: hTR-FRET IC50
[2] = system: BH4 production in human peripheral blood mononuclear cells (PBMCs); assay: hPBMC assay, inhibition of BH4 production by LC-MS (anti-CD3/anti-CD28 stimulated); type: cell-based; details: PBMC, read-out: hPBMC IC50
[3] = system: neuropathic pain-like behaviors after chronic constriction injury (CCI); assay: Behavioral pharmacology model: chronic constriction injury of the sciatic nerve (CCI), paw withdrawal threshold, von Frey filaments; type: in vivo; details: rat, oral gavage, mechanical endpoint, 4 hrs
Procedure: (§1) Behavioral Pharmacology Model: Compounds were administered by oral gavage to rats that had undergone one of two nerve injury surgeries: spared nerve injury to injure two of the three peripheral branches of the sciatic nerve or chronic constriction injury of the sciatic nerve. Paw withdrawal thresholds to mechanical stimulation using calibrated von Frey filaments were used as measurement of neuropathic pain-like behaviors.
(§2) Compounds were tested in standard behavioral pharmacology models for pain in rats as described in the literature (see, e.g., Latremoliere et al., Neuron, 86:1393-1406 (2015); Tegeder et al., Nature Medicine, 12:1269-1277 (2006)). Compounds were administered by oral gavage to rats that had undergone one of two nerve injury surgeries: spared nerve injury to injure two of the three peripheral branches of the sciatic nerve (SNI, Decosterd et al., Pain, 87:149-158 (2000)) or chronic constriction injury of the sciatic nerve (CCI, Bennett et al., Pain, 33:87-107 (1988)). Paw withdrawal thresholds to mechanical stimulation using calibrated von Frey filaments were used as measurement of neuropathic pain-like behaviors.

[4] = system: neuropathic pain-like behaviors after spared nerve injury (SNI); assay: Behavioral pharmacology model: spared nerve injury (SNI), paw withdrawal threshold, von Frey filaments; type: in vivo; details: rat, oral gavage, mechanical endpoint, 4 hrs
Procedure: as §1, §2

Sequence of SNAP-hSPR (sepiapterin reductase, SPR) (P35270 whole entry): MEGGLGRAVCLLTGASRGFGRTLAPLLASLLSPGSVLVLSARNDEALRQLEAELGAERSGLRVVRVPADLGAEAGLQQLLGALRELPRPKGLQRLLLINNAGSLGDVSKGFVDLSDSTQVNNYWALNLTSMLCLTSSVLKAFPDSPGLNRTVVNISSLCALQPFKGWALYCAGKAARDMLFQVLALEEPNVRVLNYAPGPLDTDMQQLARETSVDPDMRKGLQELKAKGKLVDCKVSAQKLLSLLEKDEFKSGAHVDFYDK

SMILES	pIC50 [1]	pIC50 [2]	Behavior Significant effect ([3]; 9.5 mpk QD 3 days)	Behavior Significant effect ([3]; 10 mpk QD 3 days)	Behavior Significant effect ([4]; 10 mpk QD 3 days)	Behavior Significant effect ([4]; 15 mpk QD 3 days)
Cc1c(C(=O)N2CCN(C3CC(F)(F)C3)CC2)nnn1-c1nn2cccc2c(=O)[nH]1 [Q-1245]	9.00	7.59	yes			
Cc1c(C(=O)N2CC(c3ccnc(F)c3)C2)cnn1-c1nn2cccc2c(=O)[nH]1 [Q-1133]	8.70	7.66		yes		
Cc1c(C(=O)N2CCC2c2ccc(F)nc2)cnn1-c1nn2cccc2c(=O)[nH]1 (stereo not drawn) [Q-1242]	8.30	7.49			yes	
Cc1c(C(=O)N2CCN(C3CC(F)(F)C3)CC2)cnn1-c1nn2cccc2c(=O)[nH]1 [Q-1169]	9.00	7.11	yes			
Cc1c(C(=O)N2CC3CC(C2)N3C2CC2)cnn1-c1nn2cccc2c(=O)[nH]1 [Q-1195]	8.70	7.33				yes
